Results reported in ChEMBL document CHEMBL1152632, “Synthesis and evaluation of functionalized isoindigos as antiproliferative agents” (Bioorg Med Chem, 2009).
Activity calls are given as the source filed them. No cut-off for these calls is given here.

Tests used:
[1] = test system: HL-60; experiment: Antiproliferative activity against human HL60 cells after 5 days by MTT assay; assay type: functional, cell-based; settings: HL-60, 120 h
[2] = test system: Huh-7; experiment: Antiproliferative activity against human HuH7 cells after 72 hrs by MTT assay; assay type: functional, cell-based; settings: Huh-7, 72 h
[3] = Antiproliferative activity against human IMR90 cells after 72 hrs by MTT assay; assay type: cell-based; settings: IMR-90, 72 h
[4] = test system: K562; experiment: cells; settings: Homo sapiens, K562, 72 h
Description: Antiproliferative activity against human K562 cells after 72 hrs by MTT assay

[5] = target: Cyclin-dependent kinase 2/cyclin A (Homo sapiens) (UniProt P24941+P20248+P78396); experiment: Inhibition of CDK2/cyclin A at 10 uM by IMAP assay; assay type: protein-complex assay
[6] = test system: HCT-116; experiment: cells; settings: Homo sapiens, HCT-116, 72 h
Description: Antiproliferative activity against human HCT116 cells after 72 hrs by MTT assay

[7] = target: Mitogen-activated protein kinase 14 (Homo sapiens) (UniProt Q16539); experiment: Inhibition of p38alpha at 10 uM
[8] = target: Serine/threonine-protein kinase pim-1 (Homo sapiens) (UniProt P11309); experiment: Inhibition of PIM1 at 10 uM
[9] = target: ALK tyrosine kinase receptor (Homo sapiens) (UniProt Q9UM73); experiment: Inhibition of ALK at 10 uM
Sequence of ALK tyrosine kinase receptor (Homo sapiens) (Q9UM73 19-1620 limits assumed): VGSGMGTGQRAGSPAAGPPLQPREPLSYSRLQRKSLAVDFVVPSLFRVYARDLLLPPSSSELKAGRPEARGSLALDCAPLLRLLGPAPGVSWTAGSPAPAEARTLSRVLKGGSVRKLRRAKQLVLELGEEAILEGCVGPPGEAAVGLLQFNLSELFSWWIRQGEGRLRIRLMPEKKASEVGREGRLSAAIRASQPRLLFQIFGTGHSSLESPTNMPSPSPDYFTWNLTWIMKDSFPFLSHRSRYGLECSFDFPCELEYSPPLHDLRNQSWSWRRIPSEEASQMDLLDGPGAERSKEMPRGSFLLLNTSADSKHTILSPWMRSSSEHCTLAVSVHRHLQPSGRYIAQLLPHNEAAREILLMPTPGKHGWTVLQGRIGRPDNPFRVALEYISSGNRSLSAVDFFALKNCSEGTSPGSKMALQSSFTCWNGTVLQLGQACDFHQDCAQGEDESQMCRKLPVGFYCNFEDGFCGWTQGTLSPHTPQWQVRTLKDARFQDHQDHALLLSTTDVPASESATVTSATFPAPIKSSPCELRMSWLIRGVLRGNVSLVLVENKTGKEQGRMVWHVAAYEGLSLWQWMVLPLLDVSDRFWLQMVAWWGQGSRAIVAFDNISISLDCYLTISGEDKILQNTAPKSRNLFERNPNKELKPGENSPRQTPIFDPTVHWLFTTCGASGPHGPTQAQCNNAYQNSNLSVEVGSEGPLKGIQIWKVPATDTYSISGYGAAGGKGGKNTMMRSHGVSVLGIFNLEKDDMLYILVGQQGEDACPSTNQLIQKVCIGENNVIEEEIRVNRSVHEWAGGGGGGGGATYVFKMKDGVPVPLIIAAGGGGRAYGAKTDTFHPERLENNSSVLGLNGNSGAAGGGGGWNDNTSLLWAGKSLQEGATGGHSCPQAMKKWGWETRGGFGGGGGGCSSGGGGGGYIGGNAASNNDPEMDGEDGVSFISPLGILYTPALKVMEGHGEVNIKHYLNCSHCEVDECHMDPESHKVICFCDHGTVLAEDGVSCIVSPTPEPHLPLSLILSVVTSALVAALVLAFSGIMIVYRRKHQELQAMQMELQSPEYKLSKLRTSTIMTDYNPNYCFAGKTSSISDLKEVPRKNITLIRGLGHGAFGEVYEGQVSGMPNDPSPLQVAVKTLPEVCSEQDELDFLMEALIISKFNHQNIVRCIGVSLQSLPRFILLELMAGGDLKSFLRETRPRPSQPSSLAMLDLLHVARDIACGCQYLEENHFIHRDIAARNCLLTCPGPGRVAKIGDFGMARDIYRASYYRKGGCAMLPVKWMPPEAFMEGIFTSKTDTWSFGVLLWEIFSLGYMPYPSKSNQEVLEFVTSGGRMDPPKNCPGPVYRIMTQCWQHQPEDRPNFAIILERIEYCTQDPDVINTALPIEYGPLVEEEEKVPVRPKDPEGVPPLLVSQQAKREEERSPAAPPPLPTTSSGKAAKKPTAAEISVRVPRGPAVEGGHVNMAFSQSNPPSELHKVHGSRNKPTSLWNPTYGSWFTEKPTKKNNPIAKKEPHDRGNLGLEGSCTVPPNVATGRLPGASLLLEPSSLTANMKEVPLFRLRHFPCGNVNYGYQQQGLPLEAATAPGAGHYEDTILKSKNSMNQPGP

[10] = target: Receptor tyrosine-protein kinase erbB-2 (Homo sapiens) (UniProt P04626); experiment: Inhibition of ERBB2 at 10 uM
[11] = target: Glycogen synthase kinase-3 beta (Homo sapiens) (UniProt P49841); experiment: Inhibition of GSK3-beta at 10 uM
[12] = target: Fibroblast growth factor receptor 3 (Homo sapiens) (UniProt P22607); experiment: Inhibition of FGFR3 at 10 uM
Sequence of Fibroblast growth factor receptor 3 (Homo sapiens) (P22607 23-806 limits assumed): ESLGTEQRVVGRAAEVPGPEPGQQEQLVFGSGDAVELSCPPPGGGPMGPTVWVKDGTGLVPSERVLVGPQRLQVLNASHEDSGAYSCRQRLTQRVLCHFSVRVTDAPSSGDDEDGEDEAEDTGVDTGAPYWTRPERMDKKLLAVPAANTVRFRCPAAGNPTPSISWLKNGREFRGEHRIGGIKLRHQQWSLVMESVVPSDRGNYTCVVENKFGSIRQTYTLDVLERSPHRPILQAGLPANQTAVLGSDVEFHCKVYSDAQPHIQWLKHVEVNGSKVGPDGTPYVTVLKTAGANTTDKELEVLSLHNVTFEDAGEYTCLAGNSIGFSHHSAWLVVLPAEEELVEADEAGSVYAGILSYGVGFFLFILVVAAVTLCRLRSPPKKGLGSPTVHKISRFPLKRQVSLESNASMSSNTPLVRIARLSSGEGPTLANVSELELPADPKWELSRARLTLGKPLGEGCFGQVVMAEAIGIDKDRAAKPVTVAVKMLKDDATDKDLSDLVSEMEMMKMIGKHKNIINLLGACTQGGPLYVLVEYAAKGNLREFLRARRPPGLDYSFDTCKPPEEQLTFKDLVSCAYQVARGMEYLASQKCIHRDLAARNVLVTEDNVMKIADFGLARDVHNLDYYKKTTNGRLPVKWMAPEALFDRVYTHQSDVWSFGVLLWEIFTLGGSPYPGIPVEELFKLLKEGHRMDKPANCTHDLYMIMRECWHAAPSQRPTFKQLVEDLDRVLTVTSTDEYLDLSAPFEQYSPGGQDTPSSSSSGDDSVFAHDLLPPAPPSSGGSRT

[13] = target: Tyrosine-protein kinase BTK (Homo sapiens) (UniProt Q06187); experiment: Inhibition of BTK at 10 uM
[14] = target: Platelet-derived growth factor receptor alpha (Homo sapiens) (UniProt P16234); experiment: Inhibition of PDGFRA at 10 uM
[15] = target: Dual specificity tyrosine-phosphorylation-regulated kinase 1B (Homo sapiens) (UniProt Q9Y463); experiment: Inhibition of DYRK1B at 10 uM
Sequence of Dual specificity tyrosine-phosphorylation-regulated kinase 1B (Homo sapiens) (Q9Y463 whole entry, looked up): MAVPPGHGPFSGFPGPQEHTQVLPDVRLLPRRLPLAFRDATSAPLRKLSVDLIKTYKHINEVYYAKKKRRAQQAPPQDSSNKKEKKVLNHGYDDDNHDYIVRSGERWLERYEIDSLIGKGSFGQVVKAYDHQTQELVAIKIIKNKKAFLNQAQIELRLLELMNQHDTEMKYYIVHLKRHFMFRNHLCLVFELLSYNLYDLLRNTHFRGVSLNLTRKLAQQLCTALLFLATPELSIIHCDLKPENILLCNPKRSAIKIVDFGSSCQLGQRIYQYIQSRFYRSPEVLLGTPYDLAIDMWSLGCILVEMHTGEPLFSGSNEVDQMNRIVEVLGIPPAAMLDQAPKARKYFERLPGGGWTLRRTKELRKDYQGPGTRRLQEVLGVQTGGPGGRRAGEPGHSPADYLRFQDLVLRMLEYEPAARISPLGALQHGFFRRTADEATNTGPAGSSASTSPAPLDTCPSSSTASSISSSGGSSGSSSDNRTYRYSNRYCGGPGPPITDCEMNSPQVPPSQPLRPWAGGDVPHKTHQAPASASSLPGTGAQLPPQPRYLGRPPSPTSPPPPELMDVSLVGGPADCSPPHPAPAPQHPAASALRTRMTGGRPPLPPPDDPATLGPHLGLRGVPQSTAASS

[16] = target: Serine/threonine-protein kinase PLK4 (Homo sapiens) (UniProt O00444); experiment: Inhibition of PLK4 at 10 uM
[17] = target: SRSF protein kinase 3 (Homo sapiens) (UniProt Q9UPE1); experiment: Inhibition of SRPK3 at 10 uM
[18] = target: Receptor tyrosine-protein kinase erbB-4 (Homo sapiens) (UniProt Q15303); experiment: Inhibition of ERBB4 at 10 uM
[19] = target: Serine/threonine-protein kinase pim-2 (Homo sapiens) (UniProt Q9P1W9); experiment: Inhibition of PIM2 at 10 uM
[20] = target: Casein kinase I isoform gamma-2 (Homo sapiens) (UniProt P78368); experiment: Inhibition of CSNK1G2 at 10 uM
[21] = target: Mast/stem cell growth factor receptor Kit (Homo sapiens) (UniProt P10721); experiment: Inhibition of KIT at 10 uM
[22] = target: Tyrosine-protein kinase ABL1 (Homo sapiens) (UniProt P00519); experiment: Inhibition of ABL1 at 10 uM
[23] = target: Non-receptor tyrosine-protein kinase TYK2 (Homo sapiens) (UniProt P29597); experiment: Inhibition of TYK2 at 10 uM
[24] = target: Serine/threonine-protein kinase Chk1 (Homo sapiens) (UniProt O14757); experiment: Inhibition of CHEK1 at 10 uM
[25] = target: Proto-oncogene tyrosine-protein kinase Src (Homo sapiens) (UniProt P12931); experiment: Inhibition of SRC at 10 uM
Sequence of Proto-oncogene tyrosine-protein kinase Src (Homo sapiens) (P12931 2-536 limits assumed): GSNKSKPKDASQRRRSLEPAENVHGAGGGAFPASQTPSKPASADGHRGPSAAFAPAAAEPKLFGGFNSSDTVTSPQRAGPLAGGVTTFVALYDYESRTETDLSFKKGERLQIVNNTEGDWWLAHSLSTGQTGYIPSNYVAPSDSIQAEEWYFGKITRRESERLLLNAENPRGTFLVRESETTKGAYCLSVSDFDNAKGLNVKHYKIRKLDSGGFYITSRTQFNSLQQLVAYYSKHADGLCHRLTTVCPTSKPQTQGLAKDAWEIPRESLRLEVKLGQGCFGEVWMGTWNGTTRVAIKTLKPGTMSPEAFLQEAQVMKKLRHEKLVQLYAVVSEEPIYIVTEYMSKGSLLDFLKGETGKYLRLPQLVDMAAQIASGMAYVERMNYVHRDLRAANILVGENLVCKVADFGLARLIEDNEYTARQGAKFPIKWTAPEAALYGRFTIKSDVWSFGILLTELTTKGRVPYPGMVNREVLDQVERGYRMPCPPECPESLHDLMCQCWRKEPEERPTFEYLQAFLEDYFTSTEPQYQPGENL

[26] = target: Epidermal growth factor receptor (Homo sapiens) (UniProt P00533); experiment: Inhibition of EGFR at 10 uM
[27] = target: Phosphatidylinositol 4,5-bisphosphate 3-kinase catalytic subunit gamma isoform (Homo sapiens) (UniProt P48736); experiment: Inhibition of PIK3CG at 10 uM
[28] = target: TGF-beta receptor type-1 (Homo sapiens) (UniProt P36897); experiment: Inhibition of TGFBR1 at 10 uM
[29] = target: RAF proto-oncogene serine/threonine-protein kinase (Homo sapiens) (UniProt P04049); experiment: Inhibition of RAF1 at 10 uM
[30] = target: Dual specificity mitogen-activated protein kinase kinase 2 (Homo sapiens) (UniProt P36507); experiment: Inhibition of MEK2 at 10 uM
[31] = target: Receptor-type tyrosine-protein kinase FLT3 (Homo sapiens) (UniProt P36888); experiment: Inhibition of FLT3 at 10 uM
[32] = target: Macrophage colony-stimulating factor 1 receptor (Homo sapiens) (UniProt P07333); experiment: Inhibition of CSF1R at 10 uM
[33] = target: Insulin receptor (Homo sapiens) (UniProt P06213); experiment: Inhibition of INSR at 10 uM
[34] = target: Tyrosine-protein kinase JAK2 (Homo sapiens) (UniProt O60674); experiment: Inhibition of JAK2 at 10 uM
[35] = target: Dual specificity mitogen-activated protein kinase kinase 1 (Homo sapiens) (UniProt Q02750); experiment: Inhibition of MEK1 at 10 uM
[36] = target: Cyclin-dependent kinase 9 (Homo sapiens) (UniProt P50750); experiment: Inhibition of CDK9 at 10 uM
[37] = target: Atypical kinase COQ8A, mitochondrial (Homo sapiens) (UniProt Q8NI60); experiment: Inhibition of ADCK3 at 10 uM
[38] = target: Fibroblast growth factor receptor 2 (Homo sapiens) (UniProt P21802); experiment: Inhibition of FGFR2 at 10 uM
[39] = target: Cyclin-dependent kinase 3 (Homo sapiens) (UniProt Q00526); experiment: Inhibition of CDK3 at 10 uM
[40] = target: Cyclin-dependent kinase 7 (Homo sapiens) (UniProt P50613); experiment: Inhibition of CDK7 at 10 uM
[41] = target: Serine/threonine-protein kinase pim-3 (Homo sapiens) (UniProt Q86V86); experiment: Inhibition of PIM3 at 10 uM
[42] = target: Hepatocyte growth factor receptor (Homo sapiens) (UniProt P08581); experiment: Inhibition of MET at 10 uM
Sequence of Hepatocyte growth factor receptor (Homo sapiens) (P08581 whole entry): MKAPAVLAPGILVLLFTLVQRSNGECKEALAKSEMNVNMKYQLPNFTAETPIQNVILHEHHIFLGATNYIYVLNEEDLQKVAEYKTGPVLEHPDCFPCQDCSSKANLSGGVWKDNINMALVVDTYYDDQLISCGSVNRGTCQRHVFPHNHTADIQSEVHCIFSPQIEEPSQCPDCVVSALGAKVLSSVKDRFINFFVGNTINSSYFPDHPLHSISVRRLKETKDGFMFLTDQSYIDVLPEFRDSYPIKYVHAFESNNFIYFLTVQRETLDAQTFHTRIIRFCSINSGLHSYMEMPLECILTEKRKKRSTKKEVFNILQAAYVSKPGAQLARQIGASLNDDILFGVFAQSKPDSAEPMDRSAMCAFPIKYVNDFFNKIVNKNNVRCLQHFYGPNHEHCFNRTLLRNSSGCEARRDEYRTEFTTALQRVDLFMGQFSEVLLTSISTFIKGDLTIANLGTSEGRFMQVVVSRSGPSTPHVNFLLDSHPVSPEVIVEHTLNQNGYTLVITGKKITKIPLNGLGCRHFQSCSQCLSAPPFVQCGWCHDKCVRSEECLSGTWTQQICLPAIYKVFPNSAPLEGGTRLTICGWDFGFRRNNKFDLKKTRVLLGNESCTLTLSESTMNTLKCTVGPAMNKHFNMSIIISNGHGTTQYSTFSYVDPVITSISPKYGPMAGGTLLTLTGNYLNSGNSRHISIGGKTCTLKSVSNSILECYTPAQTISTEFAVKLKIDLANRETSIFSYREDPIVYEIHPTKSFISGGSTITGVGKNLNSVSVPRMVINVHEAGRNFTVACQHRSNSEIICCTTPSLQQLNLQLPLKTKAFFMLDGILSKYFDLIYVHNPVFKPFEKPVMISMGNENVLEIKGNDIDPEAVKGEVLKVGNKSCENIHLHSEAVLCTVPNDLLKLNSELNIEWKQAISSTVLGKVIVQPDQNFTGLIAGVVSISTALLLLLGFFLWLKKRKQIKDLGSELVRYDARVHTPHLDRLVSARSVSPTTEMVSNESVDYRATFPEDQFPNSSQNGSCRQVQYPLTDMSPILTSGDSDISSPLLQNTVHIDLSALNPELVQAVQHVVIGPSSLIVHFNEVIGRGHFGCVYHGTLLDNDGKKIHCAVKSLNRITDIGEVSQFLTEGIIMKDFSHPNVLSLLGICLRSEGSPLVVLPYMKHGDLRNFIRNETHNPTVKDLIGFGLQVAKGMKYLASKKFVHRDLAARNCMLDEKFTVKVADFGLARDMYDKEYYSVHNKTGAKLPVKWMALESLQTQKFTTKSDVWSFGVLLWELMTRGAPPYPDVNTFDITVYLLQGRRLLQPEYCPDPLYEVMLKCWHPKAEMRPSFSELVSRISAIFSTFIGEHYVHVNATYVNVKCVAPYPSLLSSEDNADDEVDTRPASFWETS

[43] = target: Platelet-derived growth factor receptor beta (Homo sapiens) (UniProt P09619); experiment: Inhibition of PDGFRB at 10 uM
[44] = target: cAMP-dependent protein kinase catalytic subunit alpha (Homo sapiens) (UniProt P17612); experiment: Inhibition of PKACalpha at 10 uM
[45] = target: Insulin-like growth factor 1 receptor (Homo sapiens) (UniProt P08069); experiment: Inhibition of IGF1R at 10 uM
[46] = target: Angiopoietin-1 receptor (Homo sapiens) (UniProt Q02763); experiment: Inhibition of TIE2 at 10 uM
[47] = target: Cyclin-dependent kinase 2 (Homo sapiens) (UniProt P24941); experiment: Inhibition of CDK2 at 10 uM
[48] = target: Mitogen-activated protein kinase 3 (Homo sapiens) (UniProt P27361); experiment: Inhibition of ERK1 at 10 uM
[49] = target: Serine/threonine-protein kinase B-raf (Homo sapiens) (UniProt P15056); experiment: Inhibition of BRAF at 10 uM
[50] = target: Mitogen-activated protein kinase 11 (Homo sapiens) (UniProt Q15759); experiment: Inhibition of p38beta at 10 uM

For `O=C1Nc2ccccc2/C1=C1\C(=O)N(CCc2ccc(O)cc2)c2ccccc21`, the IC50 [1] was > 30 µM, the IC50 [2] was 19.9 µM and the IC50 [3] was > 30 µM. For the same molecule, the IC50 [4] was > 30 µM, the inhibition [5] was “inactive” and the IC50 [6] was > 30 µM.

Molecule `O=C1Nc2ccccc2/C1=C1\C(=O)N(CCc2ccccc2)c2ccccc21` has an IC50 [1] of 11.9 µM, an IC50 [2] of 12 µM and an IC50 [3] of 6.8 µM. For the same molecule, the IC50 [4] was 7.3 µM, the inhibition [5] was “inactive” and the IC50 [6] was 12.2 µM.

With `O=C1Nc2ccccc2/C1=C1\C(=O)N(Cc2ccccc2)c2ccccc21` the inhibition [5] was “inactive”.

For `O=C1Nc2ccccc2/C1=C1\C(=O)Nc2ccccc21` [ISOINDIGO], the IC50 [1] was 16.6 µM, the IC50 [2] was 28.9 µM and the IC50 [3] was 16.3 µM. For the same molecule, the IC50 [4] was 6.7 µM, the inhibition [5] was “inactive” and the IC50 [6] was > 30 µM.

For `O=C1Nc2ccccc2/C1=C1\C(=O)N(CCc2ccc([N+](=O)[O-])cc2)c2ccccc21`, the IC50 [1] was > 30 µM, the IC50 [2] was 13.3 µM and the IC50 [3] was 7.5 µM. The IC50 [4] was > 30 µM, the inhibition [5] was “inactive” and the IC50 [6] was > 30 µM.

In the case of `CN1C(=O)/C(=C2/C(=O)N(C)c3ccccc32)c2ccccc21`, the inhibition [5] is reported as “inactive”.

In the case of `Cc1ccc(CCN2C(=O)/C(=C3/C(=O)Nc4ccccc43)c3ccccc32)cc1`, the IC50 [1] is reported as > 30 µM, the IC50 [2] is reported as 19 µM and the IC50 [3] is reported as > 30 µM. The IC50 [4] was > 30 µM, the inhibition [5] was “inactive” and the IC50 [6] was > 30 µM.

`CN1C(=O)/C(=C2/C(=O)Nc3ccccc32)c2ccccc21` [MEISOINDIGO] gave an inhibition [7] of 0%, an inhibition [8] of 3% and an inhibition [9] of 0%. For the same molecule, the inhibition [10] was 0%, the inhibition [11] was 16% and the IC50 [1] was 12.2 µM. The inhibition [12] was 4%, the inhibition [13] was 0% and the inhibition [14] was 0%. It also gave an inhibition [15] of 0%, an inhibition [16] of 12% and an inhibition [17] of 0%. It also gave an IC50 [2] of 18.3 µM, an inhibition [18] of 0% and an inhibition [19] of 2%. The inhibition [20] was 0%, the inhibition [21] was 8% and the inhibition [22] was 11%. For the same molecule, the inhibition [23] was 8%, the inhibition [24] was 0% and the inhibition [25] was 15%. For the same molecule, the inhibition [26] was 16%, the inhibition [27] was 0% and the inhibition [28] was 0%. It also gave an inhibition [29] of 0%, an inhibition [30] of 0% and an inhibition [31] of 0%. The inhibition [32] was 0%, the inhibition [33] was 10% and the IC50 [3] was 7.7 µM. It also gave an inhibition [34] of 4%, an inhibition [35] of 16% and an inhibition [36] of 0%. It also gave an inhibition [37] of 0%, an inhibition [38] of 0% and an inhibition [39] of 0%. For the same molecule, the IC50 [4] was 6.7 µM, the inhibition [5] was “inactive” and the inhibition [40] was 56%. For the same molecule, the inhibition [41] was 7%, the inhibition [42] was 0% and the inhibition [43] was 15%. For the same molecule, the inhibition [44] was 0%, the IC50 [6] was 15.4 µM and the inhibition [45] was 13%. For the same molecule, the inhibition [46] was 6%, the inhibition [47] was 4% and the inhibition [48] was 0%. It also gave an inhibition [49] of 0% and an inhibition [50] of 0%.

`O=C1Nc2ccccc2/C1=C1\C(=O)N(CCCc2ccccc2)c2ccccc21` gave an inhibition [7] of 4%, an inhibition [8] of 0% and an inhibition [9] of 0%. For the same molecule, the inhibition [10] was 3%, the inhibition [11] was 5% and the inhibition [12] was 32%. It also gave an inhibition [13] of 13%, an inhibition [14] of 0% and an inhibition [15] of 0%. It also gave an inhibition [16] of 39%, an inhibition [17] of 7% and an inhibition [18] of 16%. The inhibition [19] was 23%, the inhibition [20] was 0% and the inhibition [21] was 49%. The inhibition [22] was 46%, the inhibition [23] was 0% and the inhibition [24] was 35%. For the same molecule, the inhibition [25] was 15%, the inhibition [26] was 0% and the inhibition [27] was 19%. For the same molecule, the inhibition [28] was 0%, the inhibition [29] was 9% and the inhibition [30] was 9%. For the same molecule, the inhibition [31] was 0%, the inhibition [32] was 11% and the inhibition [33] was 0%. For the same molecule, the inhibition [34] was 25%, the inhibition [35] was 0% and the inhibition [36] was 0%. The inhibition [37] was 45%, the inhibition [38] was 42% and the inhibition [39] was 0%. For the same molecule, the inhibition [5] was “inactive”, the inhibition [40] was 28% and the inhibition [41] was 0%. The inhibition [42] was 0%, the inhibition [43] was 49% and the inhibition [44] was 12%. The inhibition [45] was 20%, the inhibition [46] was 0% and the inhibition [47] was 0%. It also gave an inhibition [48] of 18%, an inhibition [49] of 0% and an inhibition [50] of 32%.

With `O=Nc1c(-c2c(O)[nH]c3ccccc23)[nH]c2ccccc12` [INDIRUBIN-3-MONOXIME] the IC50 [1] was 15.7 µM, the IC50 [3] was 18.2 µM and the IC50 [4] was > 30 µM. For the same molecule, the inhibition [5] was 70% and the IC50 [6] was 12 µM.

`COc1ccc(CCN2C(=O)/C(=C3/C(=O)Nc4ccccc43)c3ccccc32)cc1` showed an IC50 [1] of 12 µM, an IC50 [2] of 7.5 µM and an IC50 [3] of 5.4 µM. The IC50 [4] was 1.4 µM, the inhibition [5] was “inactive” and the IC50 [6] was 11.6 µM.

In the case of `CC(=O)Nc1ccc(CCN2C(=O)/C(=C3/C(=O)Nc4ccccc43)c3ccccc32)cc1`, the IC50 [1] is reported as > 30 µM, the IC50 [2] is reported as 13.3 µM and the IC50 [3] is reported as 19.5 µM. The IC50 [4] was > 30 µM, the inhibition [5] was “inactive” and the IC50 [6] was > 30 µM.

In the case of `O=C1Nc2cc(Br)ccc2/C1=C1/Nc2ccccc2/C1=N\O`, the inhibition [5] is reported as 70%.

In the case of `O=C1Nc2ccccc2/C1=C1\C(=O)N(c2ccccc2)c2ccccc21`, the inhibition [5] is reported as “inactive”.

In the case of `O=C1Nc2ccccc2C1C1C(=O)Nc2ccccc21` (configuration not stated), the inhibition [5] is reported as “inactive”.
